From PMC11521937, “Expression and characterization of pantothenate energy‐coupling factor transporters as an anti‐infective drug target” (Protein Science : A Publication of the Protein Society, 2024) come the findings set out here.

The test system of data set [1] is Streptococcus pneumoniae DSM‐20566. Description: bacterial growth assay (MIC), S. pneumoniae DSM‐20566. The data set is classed as cell-based.
Another data set deals with S. pneumoniae ECF‐PanT. Briefly: Transport‐activity assay, radiolabeled pantothenate uptake into proteoliposomes. Conditions: 250 μM compound + 5 mM of Mg-ATP, relative to 5 mM Mg‐ATP alone. It counts as biochemical, Streptococcus pneumoniae. Here is the method:
Based on the reported transport activity assay on L. delbrueckii (Swier et al., [2016]), for the first time, we adapted this assay to a pathogenic bacterium. To do so, we purified the ECF‐PanT transporter, reconstituted it into proteoliposomes, and carried out transport assays with radiolabeled pantothenate. Upon the addition of MgATP, the radiolabeled pantothenate is translocated across the membrane via an ATP‐dependent mechanism. MgATP at 5 mM served as a positive control, supplying the proteins with the energy needed to complete the transport cycle, while MgADP at 5 mM was used as a negative control. The uptake of the radiolabeled substrate into proteoliposomes was measured using a scintillation counter.
The assay was performed based on the published protocol (Swier et al., [2016]). The only modification was reconstitution of S. pneumoniae ECF‐PanT in a 1:125 (w/w) ratio of protein to E. coli polar lipids into large unilamellar vesicles and using radiolabeled pantothenate for uptake.

In a further data set the target is ECF‐PanT (Streptococcus pneumoniae, UniProt A0A0H2ZPG6+A0ACD7PRR9+Q04HV7+Q97N51). Briefly: SPR binding to immobilized ECF‐PanT. Conditions: for Kd: SPR, S. pneumoniae ECF‐PanT, n = 2; for kon: pH 7.5, read-out: k a; for koff: pH 7.5, read-out: k d. As to the method:
(§1) The ECF‐PanT, ECF‐module, and ECF‐FolT2, each bearing a histidine tag, were immobilized on a high‐affinity poly‐nitrilotriacetic acid (poly‐NTA) sensor chip, which was initially activated using NiCl2.
(§2) Additionally, the protein was maintained in the buffer containing 5% (v/v) DMSO. For a more in‐depth description of the procedures, please refer to Appendix S1.
(§3) Surface plasmon resonance (SPR)
(§4) The SPR binding studies were performed using a Reichert 4SPR surface plasmon resonance spectrometer (Reichert Technologies, Buffalo, NY, USA), and medium–density NTA derivatized polycarboxylate hydrogel NiHC200M sensor chips (XanTec Bioanalytics, Düsseldorf, Germany). The experimental procedure involved two rounds of nickel activation and one immobilization step at a […]
(§5) standard protocol as provided by Xantec bioanalytics with a slight modification based on the recombinant proteins. The flow-cell 4 was left blank to serve as a reference.
(§6) The immobilization buffer employed for the immobilization process consisted of 10 mM HEPES with a pH of 7.5, 50 mM NaCl, 50 µM EDTA, and 0.05% DDM without DMSO. Following the immobilization step, for the binding study of the compounds, the running buffer was exchanged for the mentioned buffer with 5% v/v DMSO. This was done to ensure consistency in the percentage of DMSO present in the solutions containing the respective testing inhibitors, as these inhibitors were soluble in the DMSO solvent. By maintaining the same DMSO concentration, we aimed to minimize any potential solvent-related effects on the assay results. All running buffers were filtered and degassed before use.
(§7) The system was initially primed with 5 mM NiCl2 with an association and dissociation time of 2 min for each to activate the NTA sensor chip. Then, the recombinant proteins with a concentration of 200 nM were injected at a flow rate of 10 µL/min for 8 min. Finally, the baseline check with the running […]
(§8) First, the calibration curve for correction of the DMSO effect was prepared; the concentrations were […]
(§9) concentration of DMSO in all the samples was set to 5% v/v DMSO. The samples (200 µL) were loaded on a 96-well plate and were injected at a flow rate of 50 μL/min. Single-cycle kinetics were applied for KD determination. The association time was set to 60 s, and the dissociation phase was recorded for 120 s. For surface regeneration, 0.35 M EDTA (pH 8.5) and 0.1 M NaOH were used. Data processing and […]
(§10) were calculated by sequential subtractions of the corresponding curves obtained from the reference flow cell and the running buffer (blank). SPR responses were expressed in the resonance unit (RU). The KD values were calculated by global fitting of the kinetic curves as well as fitting of the steady state binding responses to a 1:1 Langmuir interaction model.
(§11) The SPR experiments were conducted at least two times, representing independent replicates. The […]
(§12) interactions, are presented in Figure S12 for ECF-PanT, Figure S13 for ECF-FolT2, and Figure S14 for […]
Background: In SPR one partner is held on a chip, and binding of the other changes the refractive index at the surface.

Another data set deals with ECF‐FolT2 (Lactobacillus delbrueckii subsp. bulgaricus, UniProt Q1G929+Q1GBI8+Q1GBI9+Q1GBJ0). Briefly: SPR binding to immobilized ECF‐FolT2. The conditions noted are these: for Kd: n = 2. Here is the method: as §1, §2, §3, §4, §5, §6, §7, §8, §9, §10, §11, §12
Data set [2] is described as follows: In vitro MTT cytotoxicity assay, HepG2. The conditions noted are these: human, read-out: Percent (%) cell viability at 100 μM, HepG2 cells. It counts as cell-based, human. As to the method:
In vitro cytotoxicity evaluation […]
with minor modifications, which will be detailed below.
To obtain information regarding the toxicity of our compounds, their impact on the viability of human cells was investigated. HepG2 and A549 cells (2 × 10^4 cells per well) were seeded in 96-well, flat-bottomed culture plates in 100 µL culture medium (DMEM containing 10% fetal calve serum, 1% penicillin-streptomycin). Twenty-four hours after seeding the cells, medium was removed and replaced by medium containing test compounds in a final DMSO concentration of 1%. Compounds were tested in duplicates at a single concentration in 1% DMSO/medium. Epirubicin and doxorubicin were used as positive controls in serial dilutions starting from 10 µM, and rifampicin was used as a negative control (at 100 µM). The living cell mass was determined 48 h after treatment with compounds by adding 0.1 volumes of 3-(4,5-dimethylthiazol-2-yl)-2,5-diphenyltetrazolium bromide (MTT) solution (5 mg/mL sterile PBS) (Sigma, St. Louis, MO) to the wells. After incubating the cells for 30 min at 37 °C (atmosphere containing 5% CO2), medium was removed and MTT crystals were dissolved in 75 µL of a solution containing 10% SDS and 0.5% acetic acid in DMSO. The optical density (OD) of the samples was determined photometrically at 570 nm in a PHERAstar Omega plate reader (BMG labtech, Ortenberg, Germany). To obtain percent viability for each sample, their ODs were related to those of DMSO controls. At least two independent measurements were performed for each compound. The calculation of IC50 was performed using the nonlinear regression function of GraphPad Prism 10 (GraphPad Software, San Diego, CA, USA). […]

The mark [3] stands for this setting: Equilibrium, K D, steady state fit.
Where [4] appears, read: Kinetic, K D, global fit of kinetic curves.
Where [5] appears, read: Equilibrium, K D, SPR, L. delbrueckii ECF‐FolT2, steady state fit.
Setting [6] is: Kinetic, K D, SPR, L. delbrueckii ECF‐FolT2, global fit of kinetic curves.
[7] abbreviates: global fit of kinetic curves, read-out: Kinetic, K D.
Setting [8] is: steady state fit, read-out: Equilibrium, K D.
[9] abbreviates: SPR, L. delbrueckii ECF‐FolT2, global fit of kinetic curves, read-out: Kinetic, K D.
[10] abbreviates: SPR, L. delbrueckii ECF‐FolT2, steady state fit, read-out: Equilibrium, K D.
Where [11] appears, read: pH 7.5, SPR, L. delbrueckii ECF‐FolT2, n = 2, read-out: k a.
Where [12] appears, read: pH 7.5, SPR, L. delbrueckii ECF‐FolT2, n = 2, read-out: k d.

Values after ≈ are worked out from the molar mass of the structure shown. Read-outs that look alike come from different tables or passages of the source.

ECF‐FolT2, sequence (Q1GBJ0 whole entry): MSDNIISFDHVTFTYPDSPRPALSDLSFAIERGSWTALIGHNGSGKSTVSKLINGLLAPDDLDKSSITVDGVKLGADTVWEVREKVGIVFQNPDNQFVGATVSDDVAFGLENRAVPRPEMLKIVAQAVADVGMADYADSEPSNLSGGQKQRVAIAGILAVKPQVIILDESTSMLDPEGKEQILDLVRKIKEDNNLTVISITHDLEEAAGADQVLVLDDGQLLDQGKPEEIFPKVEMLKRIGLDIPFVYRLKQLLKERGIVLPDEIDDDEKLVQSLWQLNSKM
ECF‐FolT2, sequence (Q1GBI9 whole entry): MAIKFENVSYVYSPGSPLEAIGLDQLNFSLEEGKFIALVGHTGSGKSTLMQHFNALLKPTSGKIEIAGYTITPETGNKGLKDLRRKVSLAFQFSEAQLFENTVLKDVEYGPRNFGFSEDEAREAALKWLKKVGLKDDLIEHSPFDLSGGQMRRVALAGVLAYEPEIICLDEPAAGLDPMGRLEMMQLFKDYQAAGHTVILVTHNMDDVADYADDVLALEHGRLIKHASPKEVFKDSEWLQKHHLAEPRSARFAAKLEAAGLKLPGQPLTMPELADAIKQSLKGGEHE
ECF‐FolT2, sequence (Q1GBI8 entry or part of it): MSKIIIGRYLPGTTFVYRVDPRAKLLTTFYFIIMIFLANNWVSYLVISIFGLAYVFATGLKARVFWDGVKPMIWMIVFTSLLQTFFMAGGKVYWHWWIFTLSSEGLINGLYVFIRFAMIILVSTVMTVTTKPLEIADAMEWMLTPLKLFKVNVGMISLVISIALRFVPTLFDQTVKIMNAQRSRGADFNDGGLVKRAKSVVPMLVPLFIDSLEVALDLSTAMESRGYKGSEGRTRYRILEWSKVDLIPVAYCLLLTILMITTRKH
ECF‐FolT2, sequence (Q1G929 entry or part of it): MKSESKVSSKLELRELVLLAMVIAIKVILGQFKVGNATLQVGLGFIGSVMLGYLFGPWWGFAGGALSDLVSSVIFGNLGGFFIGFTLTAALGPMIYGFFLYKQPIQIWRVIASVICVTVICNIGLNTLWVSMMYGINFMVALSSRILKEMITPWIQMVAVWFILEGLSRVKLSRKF

In general, MIC refers to the lowest concentration that inhibits growth of the organism. A low value points to a more susceptible organism. Usually viability stands for a read-out of living cells in per cent, often relative to untreated cells. For `CC(C)(C)OC(=O)Nc1ccc(OCc2cccc3ccccc23)cc1C(=O)O` [Compound 3], in data set [1], the lowest concentration to inhibit growth (MIC) was 16 µM (≈ 6.3 µg/mL). Moreover, the “Percentage inhibition of pantothenate uptake” value (from here on “Percentage inhibition”) in the data set on S. pneumoniae ECF‐PanT stood at 80.7%. Moreover, the Kd at ECF‐PanT (setting [3]) stood at 96 ± 8 µM; on ECF‐PanT (setting [4]), 99 ± 1 µM; at ECF‐FolT2 (setting [5]), 128 ± 9 µM; on ECF‐FolT2 (setting [6]), 132 ± 3 µM. The kon on ECF‐PanT was found to be 650 ± 9 M⁻¹ s⁻¹; on ECF‐FolT2 (pH 7.5, read-out: k a) it was 570 ± 10 M⁻¹ s⁻¹. The koff on ECF‐PanT is 0.0643 ± 0.0006 s⁻¹; at ECF‐FolT2 (pH 7.5, read-out: k d), 0.0755 ± 0.0008 s⁻¹. Besides, the viability at 48 h, 100 µM in data set [2] came to 49 ± 3%.
`O=C(O)c1cccc(NCc2ccc(-c3cccc(Cl)c3)o2)c1` [Compound 5] had an MIC in data set [1] of 128 µM (≈ 42 µg/mL). For the same compound, the “Percentage inhibition” value in the data set on S. pneumoniae ECF‐PanT came out at 90.6%. Further, the Kd was found to be 451 ± 8 µM on ECF‐PanT (setting [7]), 420 ± 10 µM at ECF‐PanT (setting [8]), 328 ± 6 µM on ECF‐FolT2 (setting [9]) and 300 ± 30 µM on ECF‐FolT2 (setting [10]). For the same compound, the kon at ECF‐PanT turned out to be 348 ± 7 M⁻¹ s⁻¹; at ECF‐FolT2 (setting [11]) it was 570 ± 10 M⁻¹ s⁻¹. Also, the koff was determined as 0.157 ± 0.002 s⁻¹ on ECF‐PanT and 0.187 ± 0.003 s⁻¹ at ECF‐FolT2 (setting [12]). In addition, in data set [2] (HepG2 cells), the viability at 48 h, 100 µM turned out to be 106 ± 8%.
`O=C(O)c1cccc(NCc2ccc(-c3ccccc3Cl)o2)c1` [Compound 6] registered an MIC in data set [1] of 128 µM (≈ 42 µg/mL). Further, the “Percentage inhibition” value in the data set with S. pneumoniae ECF‐PanT turned out to be 61.9%. Moreover, the Kd on ECF‐PanT (setting [7]) turned out to be 391 ± 6 µM; at ECF‐PanT (setting [8]) it was 374 ± 6 µM; at ECF‐FolT2 (setting [9]), 231 ± 5 µM; on ECF‐FolT2 (setting [10]), 230 ± 10 µM. Besides, the kon was 376 ± 6 M⁻¹ s⁻¹ at ECF‐PanT and 100000 M⁻¹ s⁻¹ on ECF‐FolT2 (setting [11]). Besides, the results for the koff on ECF‐PanT and at ECF‐FolT2 (setting [12]) were 0.147 ± 0.002 s⁻¹ and 22 ± 3 s⁻¹, respectively. The viability at 48 h, 100 µM in data set [2] (HepG2 cells) came out at 105 ± 3%.
As for `O=C(O)c1cc(OCc2ccc(Br)c3ccccc23)ccc1O` [Compound 2], the MIC in data set [1] was 8 µM (≈ 2.99 µg/mL). Also, the “Percentage inhibition” value with S. pneumoniae ECF‐PanT amounted to 117.2%. In addition, the Kd was found to be 170 ± 5 µM at ECF‐PanT (setting [3]), 172 ± 2 µM on ECF‐PanT (setting [4]), 190 ± 20 µM on ECF‐FolT2 (setting [5]) and 185 ± 3 µM at ECF‐FolT2 (setting [6]). Further, the viability at 48 h, 100 µM in data set [2] amounted to 23 ± 7%.
In turn, `O=C(O)c1cccc(NCc2ccc(-c3ccc(Cl)cc3)o2)c1` [Compound 4] gave an MIC in data set [1] of 64 µM (≈ 21 µg/mL). For the same compound, in the data set with S. pneumoniae ECF‐PanT, the “Percentage inhibition” value worked out at 95.2%. Besides, the Kd on ECF‐PanT (setting [7]) is 317 ± 3 µM; at ECF‐PanT (setting [8]), 304 ± 6 µM; at ECF‐FolT2 (setting [9]) it was 353 ± 5 µM; on ECF‐FolT2 (setting [10]), 340 ± 10 µM. Further, the kon on ECF‐PanT came out at 399 ± 4 M⁻¹ s⁻¹; on ECF‐FolT2 (setting [11]) it was 325 ± 5 M⁻¹ s⁻¹. The koff turned out to be 0.127 ± 0.001 s⁻¹ at ECF‐PanT and 0.115 ± 0.001 s⁻¹ at ECF‐FolT2 (setting [12]). Further, in data set [2] (HepG2 cells), the viability at 48 h, 100 µM turned out to be 88 ± 9%.
`O=C(O)c1cc(OCc2cccc3ccccc23)ccc1O` [Compound 1] had an MIC in data set [1] of 128 µM (≈ 37.7 µg/mL). Besides, the “Percentage inhibition” value in the data set on S. pneumoniae ECF‐PanT turned out to be 81.8%. In addition, the Kd on ECF‐PanT (setting [3]) was 277 ± 5 µM; on ECF‐PanT (setting [4]) it was 276 ± 4 µM; on ECF‐FolT2 (setting [5]), 300 ± 20 µM; on ECF‐FolT2 (setting [6]), 294 ± 6 µM. In data set [2], the viability at 48 h, 100 µM turned out to be 20 ± 2%.
